Laboratory results as given in ChEMBL document CHEMBL1157986, “Vismiaphenones D-G, new prenylated benzophenones from Vismia cayennensis” (J Nat Prod, 1999).
In brackets after ≈: the same amount, converted by molar mass.

Columns and labels:
[1] = system: Human immunodeficiency virus; assay: Antiviral activity against HIV; assay type: functional, organism-based; settings: Human immunodeficiency virus 1
CEM-SS = assay: Cytotoxicity against human CEM-SS cells; assay type: functional, cell-based

For `COc1c(CC=C(C)C)c(O)c(C(=O)c2ccc(O)cc2)c(O)c1CC=C(C)C` [VISMIAPHENONE D], which EC50 [1] is on record?
Its EC50 is 11 µg/mL (≈ 27.7 µM).

And the IC50 (CEM-SS)?
Its IC50 is 30 µg/mL (≈ 75.7 µM).
